The nature of series [1]: The drug is tested on Bifidobacterium ruminantium strain: fecal isolate for biotransformation. The drug concentrations were measured before and after a 12-h incubation by liquid-chromatography-coupled mass spectrometry (LC–MS). Particulars: 2 µM.
Series [2] is described as follows: The drug is tested on Eggerthella lenta strain: ATCC25559 for biotransformation. The drug concentrations were measured before and after a 12-h incubation by liquid-chromatography-coupled mass spectrometry (LC–MS). Particulars: 2 µM.
The nature of series [3]: The drug is tested on Bacteroides dorei strain: DSM17855 for biotransformation. The drug concentrations were measured before and after a 12-h incubation by liquid-chromatography-coupled mass spectrometry (LC–MS). The settings on record: phocaeicola dorei, 2 µM.
A short description of series [4]: The drug is tested on Bacteroides ovatus strain: ATCC8483 for biotransformation. The drug concentrations were measured before and after a 12-h incubation by liquid-chromatography-coupled mass spectrometry (LC–MS). The settings on record: 2 µM.
Series [5] in a line: The drug is tested on Bacteroides pectinophilus strain: ATCC43243 for biotransformation. The drug concentrations were measured before and after a 12-h incubation by liquid-chromatography-coupled mass spectrometry (LC–MS). Particulars: 2 µM.
The nature of series [6]: The drug is tested on Bacteroides uniformis strain: ATCC8492 for biotransformation. The drug concentrations were measured before and after a 12-h incubation by liquid-chromatography-coupled mass spectrometry (LC–MS). Particulars: 2 µM.
Series [7] can be described thus: The drug is tested on Anaerotruncus colihominis strain: DSM17241 for biotransformation. The drug concentrations were measured before and after a 12-h incubation by liquid-chromatography-coupled mass spectrometry (LC–MS). Particulars: 2 µM.
Series [8] in a line: The drug is tested on Clostridium asparagiforme strain: DSM15981 for biotransformation. The drug concentrations were measured before and after a 12-h incubation by liquid-chromatography-coupled mass spectrometry (LC–MS). The series is classed as ADME. Set-up: dose 2 uM, timepoint 0 vs 12 hours. Particulars: enterocloster asparagiformis, 2 µM.
Series [9] is described as follows: The drug is tested on Clostridium sp. strain: fecal isolate for biotransformation. The drug concentrations were measured before and after a 12-h incubation by liquid-chromatography-coupled mass spectrometry (LC–MS). Particulars: 2 µM.
A short description of series [10]: The drug is tested on Clostridium scindens strain: ATCC35704 for biotransformation. The drug concentrations were measured before and after a 12-h incubation by liquid-chromatography-coupled mass spectrometry (LC–MS). Particulars: 2 µM.
Series [11] can be described thus: The drug is tested on Dorea formicigenerans strain: ATCC27755 for biotransformation. The drug concentrations were measured before and after a 12-h incubation by liquid-chromatography-coupled mass spectrometry (LC–MS). Particulars: 2 µM.
Series [12] can be described thus: The drug is tested on Enterococcus faecalis strain: V583 for biotransformation. The drug concentrations were measured before and after a 12-h incubation by liquid-chromatography-coupled mass spectrometry (LC–MS). Particulars: 2 µM.
Series [13] in a line: The drug is tested on Ruminococcus gnavus strain: ATCC29149 for biotransformation. The drug concentrations were measured before and after a 12-h incubation by liquid-chromatography-coupled mass spectrometry (LC–MS). Particulars: mediterraneibacter gnavus, 2 µM.
A short description of series [14]: The drug is tested on Ruminococcus torques strain: ATCC27756 for biotransformation. The drug concentrations were measured before and after a 12-h incubation by liquid-chromatography-coupled mass spectrometry (LC–MS). The series is classed as ADME. Set-up: dose 2 uM, timepoint 0 vs 12 hours. Particulars: 2 µM.
A short description of series [15]: The drug is tested on Subdoligranulum variabile strain: DSM15176 for biotransformation. The drug concentrations were measured before and after a 12-h incubation by liquid-chromatography-coupled mass spectrometry (LC–MS). Particulars: 2 µM.
Series [16] can be described thus: The drug is tested on Enterobacter cancerogenus strain: ATCC35316 for biotransformation. The drug concentrations were measured before and after a 12-h incubation by liquid-chromatography-coupled mass spectrometry (LC–MS). Particulars: 2 µM.
Series [17] is described as follows: The drug is tested on Escherichia coli strain: BW25113 for biotransformation. The drug concentrations were measured before and after a 12-h incubation by liquid-chromatography-coupled mass spectrometry (LC–MS). Particulars: 2 µM.
Series [18] is described as follows: The drug is tested on Providencia rettgeri strain: DSM1131 for biotransformation. The drug concentrations were measured before and after a 12-h incubation by liquid-chromatography-coupled mass spectrometry (LC–MS). The format is ADME. Details: dose 2 uM, timepoint 0 vs 12 hours. Particulars: 2 µM.
For series [19] the following is noted: bifidobacterium adolescentis, 12 h, 2 µM.
Description: The drug is tested on Bifidobacterium adolescentis strain: ATCC 15703 for biotransformation. The drug concentrations were measured before and after a 12-h incubation by liquid-chromatography-coupled mass spectrometry (LC–MS)
For series [20] the following is noted: bacteroides eggerthii, 12 h, 2 µM.
Description: The drug is tested on Bacteroides eggerthii strain: DSM20697 for biotransformation. The drug concentrations were measured before and after a 12-h incubation by liquid-chromatography-coupled mass spectrometry (LC–MS)

SMILES strings stand for the structures.

For `C[C@@H]1CC[C@H]2[C@@H](C)C(=O)O[C@@H]3O[C@@]4(C)CC[C@@H]1[C@]32OO4` [ARTEMISININ], the “Bacterial Biotransformation” value in series [1], in series [2], in series [3], in series [4], in [5] and in series [6] was “Compound metabolized” each time. Moreover, the “Bacterial Biotransformation” value in [7], in series [8], in series [9], in series [10], in [11] and in [12] was “Compound metabolized” each time. Besides, the “Bacterial Biotransformation” value in series [13], in series [14], in series [15], in [16], in series [17] and in series [18] was “Compound metabolized” each time. The “Bacterial Biotransformation” value in [19] and in series [20] was “Compound metabolized” in each case.
On to `CCN1CCCC1CNC(=O)c1cc(S(=O)(=O)CC)c(N)cc1OC` (centres undefined) [AMISULPRIDE], for which the “Bacterial Biotransformation” value in series [1], in series [2], in series [3], in series [4], in series [5] and in series [6] was “Compound NOT metabolized” each time. The “Bacterial Biotransformation” value in series [7], in [8], in [9], in [10], in [11] and in series [12] was “Compound NOT metabolized” each time. Also, the “Bacterial Biotransformation” value in series [13], in series [14], in [15], in series [16], in series [17] and in series [18] was “Compound NOT metabolized” throughout. Also, the “Bacterial Biotransformation” value in [19] and in series [20] was “Compound NOT metabolized” in each case.
For the compound `CNCCC(Oc1ccc(C(F)(F)F)cc1)c1ccccc1` (centres undefined) [FLUOXETINE], the “Bacterial Biotransformation” value in series [1] is listed as “Compound metabolized”; in series [2], “Compound NOT metabolized”; in [3] it was “Compound metabolized”; in series [4] it was “Compound metabolized”; in series [5], “Compound metabolized”; in [6], “Compound metabolized”. The “Bacterial Biotransformation” value in series [7] is listed as “Compound NOT metabolized”; in series [8], “Compound metabolized”; in [9] it was “Compound metabolized”; in series [10] it was “Compound NOT metabolized”; in series [11], “Compound metabolized”; in series [12], “Compound metabolized”. For the same compound, the “Bacterial Biotransformation” value is “Compound metabolized” in series [13]; “Compound NOT metabolized” in [14]; “Compound metabolized” in series [15]; “Compound metabolized” in series [16]; “Compound metabolized” in series [17]; “Compound NOT metabolized” in [18]. The “Bacterial Biotransformation” value in [19] and in [20] was “Compound metabolized” throughout.
For the compound `OC(CCN1CCCCC1)(c1ccccc1)C1CC2C=CC1C2` (centres undefined) [BIPERIDEN], the “Bacterial Biotransformation” value in series [1], in series [2], in series [3], in series [4], in series [5] and in [6] was “Compound NOT metabolized” throughout. Also, the “Bacterial Biotransformation” value in series [7], in series [8], in series [9], in series [10], in series [11] and in [12] was “Compound NOT metabolized” in each case. The “Bacterial Biotransformation” value in series [13], in series [14], in series [15], in [16], in series [17] and in series [18] was “Compound NOT metabolized” throughout. Further, the “Bacterial Biotransformation” value in series [19] and in series [20] was “Compound NOT metabolized” each time.
Consider `N[C@@H](Cc1ccc(N(CCCl)CCCl)cc1)C(=O)O`, for which the “Bacterial Biotransformation” value in series [1], in series [2], in [3], in series [4], in [5] and in series [6] was “Compound metabolized” in each case. The “Bacterial Biotransformation” value in [7], in series [8], in series [9], in [10], in series [11] and in series [12] was “Compound metabolized” each time. Besides, the “Bacterial Biotransformation” value in [13], in series [14], in [15], in series [16], in [17] and in series [18] was “Compound metabolized” throughout. For the same compound, the “Bacterial Biotransformation” value in series [19] and in series [20] was “Compound metabolized” in each case.
`CC[C@H](C)C(=O)O[C@H]1CCC=C2C=C[C@H](C)[C@H](CC[C@@H]3C[C@@H](O)CC(=O)O3)[C@H]21` [MEVASTATIN]: the “Bacterial Biotransformation” value in [1], in series [2], in series [3], in [4], in [5] and in [6] was “Compound metabolized” in each case. The “Bacterial Biotransformation” value in [7], in series [8], in series [9], in series [10], in [11] and in [12] was “Compound metabolized” throughout. In addition, the “Bacterial Biotransformation” value in [13], in series [14], in [15], in series [16], in [17] and in series [18] was “Compound metabolized” in each case. For the same compound, in series [20], the “Bacterial Biotransformation” value is listed as “Compound metabolized”.

Source of the values: ChEMBL document CHEMBL5303573, “Mapping human microbiome drug metabolism by gut bacteria and their genes” (Nature, 2019).
